In PubChem BioAssay AID248 (DTP/NCI, 2004):
“And” between values parts separate entries of the source, which are not always exact repeats. Equal entries are not always repeated. Inconclusive results and toxic doses are left out. Cut-off read from the data, not from the text of the source: active = T/C of 150% or more; inactive = T/C below 125%.

Test system: L1210 leukemia ip in BDF1 mice, survival T/C
Test: NCI In Vivo Anticancer Drug Screen. Data for tumor model L1210 Leukemia (intraperitoneal) in B6D2F1 (BDF1) mice
Settings: endpoint: mean survival time, higher = longer survival
Summary of the method: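 Survival endpoint. Drug-treated group vs vehicle group, expressed as T divided by C. Tumor passaged by transplantation.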

[1] = dose: 100.0 mg/kg/injection, schedule: Q01DX009 (ip), vehicle: saline with Tween-80
[2] = dose: 200.0 mg/kg/injection, schedule: Q01DX009 (ip), vehicle: saline with Tween-80
[3] = dose: 100.0 mg/kg/injection, schedule: Q04DX003 (ip), vehicle: Klucel (hydroxypropylcellulose) (HPC)
[4] = dose: 200.0 mg/kg/injection, schedule: Q04DX003 (ip), vehicle: Klucel (hydroxypropylcellulose) (HPC)
[5] = dose: 400.0 mg/kg/injection, schedule: Q04DX003 (ip), vehicle: Klucel (hydroxypropylcellulose) (HPC)
[6] = dose: 50.0 mg/kg/injection, schedule: Q01DX009 (ip), vehicle: Klucel (hydroxypropylcellulose) (HPC)
[7] = dose: 100.0 mg/kg/injection, schedule: Q01DX009 (ip), vehicle: Klucel (hydroxypropylcellulose) (HPC)
[8] = dose: 200.0 mg/kg/injection, schedule: Q01DX009 (ip), vehicle: Klucel (hydroxypropylcellulose) (HPC)
[9] = dose: 100.0 mg/kg/injection, schedule: Q01DX001 (ip), vehicle: Klucel (hydroxypropylcellulose) (HPC)
[10] = dose: 200.0 mg/kg/injection, schedule: Q01DX001 (ip), vehicle: Klucel (hydroxypropylcellulose) (HPC)
[11] = dose: 400.0 mg/kg/injection, schedule: Q01DX001 (ip), vehicle: Klucel (hydroxypropylcellulose) (HPC)
[12] = dose: 100.0 mg/kg/injection, schedule: Q01DX001 (ip), vehicle: saline with Tween-80
[13] = dose: 200.0 mg/kg/injection, schedule: Q01DX001 (ip), vehicle: saline with Tween-80
[14] = dose: 400.0 mg/kg/injection, schedule: Q01DX001 (ip), vehicle: saline with Tween-80

Measured: T/C

COc1ccc(/C=C/C(=O)c2ccc(OC)c(OCc3ccccc3)c2)cc1OC
inactive: dose: 100.0 mg/kg/injection, schedule: Q01DX009 (ip), vehicle: water 98 % of control | dose: 100.0 mg/kg/injection, schedule: Q04DX003 (ip), vehicle: water 98 % of control | dose: 200.0 mg/kg/injection, schedule: Q01DX009 (ip), vehicle: water 93 % of control | dose: 200.0 mg/kg/injection, schedule: Q04DX003 (ip), vehicle: water 94 % of control | dose: 400.0 mg/kg/injection, schedule: Q01DX009 (ip), vehicle: water 97 % of control | dose: 400.0 mg/kg/injection, schedule: Q04DX003 (ip), vehicle: water 98 % of control

S=C=NCc1ccccc1
inactive: dose: 75.0 mg/kg/injection, schedule: Q01DX001 (ip), vehicle: saline 97 % of control | dose: 150.0 mg/kg/injection, schedule: Q01DX001 (ip), vehicle: saline 105 % of control

O=S(=O)(OCC1CO1)c1ccc(Cl)cc1 (stereo not given)
inactive: dose: 100.0 mg/kg/injection, schedule: Q01DX008 (ip), vehicle: Klucel (hydroxypropylcellulose) (HPC) 101 % of control | dose: 200.0 mg/kg/injection, schedule: Q01DX008 (ip), vehicle: Klucel (hydroxypropylcellulose) (HPC) 108 % of control | dose: 400.0 mg/kg/injection, schedule: Q01DX008 (ip), vehicle: Klucel (hydroxypropylcellulose) (HPC) 108 % of control

CC(Br)C(=O)NC(CC(N)=O)C(=O)O (stereo not given)
inactive: [1] 93 % of control | [2] 91 % of control

COC(=O)c1ccccc1C(=O)OCC(C)(C)[N+](=O)[O-]
inactive: [3] 100 % of control | [4] 97 % of control | [5] 107 % of control

COc1ccc(OC)c(NC(=O)Nc2cc([N+](=O)[O-])ccc2OC)c1
inactive: [6] 101 % of control | [7] 97 % of control | [8] 111 % of control

Nc1nc(=S)c2[nH]c(N=Nc3ccc(S(=O)(=O)Nc4cnc5ccccc5n4)cc3)nc2[nH]1
inactive: dose: 25.0 mg/kg/injection, schedule: Q01DX009 (ip), vehicle: Klucel (hydroxypropylcellulose) (HPC) 112 % of control | [6] 109 % of control | [7] 91 % of control

COC(=O)Nc1ccc(N)c(NC(=O)OC)n1
inactive: [7] 92 % of control | [3] 106 % of control | [8] 89 % of control | [4] 99 % of control | dose: 400.0 mg/kg/injection, schedule: Q01DX009 (ip), vehicle: Klucel (hydroxypropylcellulose) (HPC) 87 % of control | [5] 100 % of control

CCCCCCCCCCCCCCCCCC(=O)C(C)(C)C
inactive: dose: 25.0 mg/kg/injection, schedule: Q01DX001 (ip), vehicle: Klucel (hydroxypropylcellulose) (HPC) 92 % of control | dose: 50.0 mg/kg/injection, schedule: Q01DX001 (ip), vehicle: Klucel (hydroxypropylcellulose) (HPC) 98 % of control | [9] 98 % of control | [10] 98 % of control | [11] 95 % of control

O=C1/C(=C/c2ccccc2)CCC/C1=C\c1ccccc1
inactive: dose: 100.0 mg/kg/injection, schedule: Q04DX002 (ip), vehicle: saline with Tween-80 92 % of control | dose: 200.0 mg/kg/injection, schedule: Q04DX002 (ip), vehicle: saline with Tween-80 92 % of control | dose: 400.0 mg/kg/injection, schedule: Q04DX002 (ip), vehicle: saline with Tween-80 95 % of control

Nc1nc(N)c2c(n1)SCC(c1ccc(Cl)cc1)=N2
inactive: dose: 75.0 mg/kg/injection, schedule: Q01DX001 (ip), vehicle: other 101 % of control | dose: 150.0 mg/kg/injection, schedule: Q01DX001 (ip), vehicle: other 98 % of control

O=C1C(c2ccc(O)cc2)C2C=CC(C2)N1O (stereo not given)
inactive: dose: 100.0 mg/kg/injection, schedule: Q01DX001 (ip), vehicle: saline 95 % of control | dose: 200.0 mg/kg/injection, schedule: Q01DX001 (ip), vehicle: saline 103 % of control | dose: 400.0 mg/kg/injection, schedule: Q01DX001 (ip), vehicle: saline 95 % of control

N=c1ccn(C(=O)C2=Cc3ccccc3OC2)cc1
inactive: dose: 5.0 mg/kg/injection, schedule: Q01DX009 (ip), vehicle: saline with Tween-80 101 % of control | dose: 10.0 mg/kg/injection, schedule: Q01DX009 (ip), vehicle: saline with Tween-80 90 % of control | dose: 10.0 mg/kg/injection, schedule: Q04DX003 (ip), vehicle: saline with Tween-80 100 % of control | dose: 20.0 mg/kg/injection, schedule: Q01DX009 (ip), vehicle: saline with Tween-80 96 % of control | dose: 20.0 mg/kg/injection, schedule: Q04DX003 (ip), vehicle: saline with Tween-80 98 % of control

O=[N+]([O-])c1ccc(C=Nc2ccc(OCc3ccccc3)cc2)s1
inactive: [3] 91 % of control | [4] 88 % of control | [5] 91 % of control

CC(=O)OC(C)(C)/C=C/C(=O)[C@](C)(O)[C@H]1[C@H](O)C[C@@]2(C)[C@@H]3CC=C4[C@@H](C[C@H](O)C(=O)C4(C)C)[C@]3(C)C(=O)C[C@]12C
inactive: dose: 0.12 mg/kg/injection, schedule: Q01DX009 (ip), vehicle: saline 88 % of control | dose: 0.12 mg/kg/injection, schedule: Q04DX003 (ip), vehicle: saline 98 % of control | dose: 0.16 mg/kg/injection, schedule: Q01DX Z (ip), vehicle: saline 100 % of control | dose: 0.25 mg/kg/injection, schedule: Q01DX001 (ip), vehicle: saline 92 % of control | dose: 0.25 mg/kg/injection, schedule: Q01DX009 (ip), vehicle: saline 100 % of control | dose: 0.25 mg/kg/injection, schedule: Q01DX Z (ip), vehicle: saline 113 % of control | dose: 0.25 mg/kg/injection, schedule: Q04DX003 (ip), vehicle: saline 102 % of control | dose: 0.38 mg/kg/injection, schedule: Q01DX Z (ip), vehicle: saline 103 % of control | dose: 0.4 mg/kg/injection, schedule: Q01DX Z (ip), vehicle: carboxymethylcellulose (CMC) 93 % of control and 103 % of control | dose: 0.5 mg/kg/injection, schedule: Q01DX001 (ip), vehicle: saline 98 % of control | dose: 0.5 mg/kg/injection, schedule: Q01DX009 (ip), vehicle: saline 103 % of control | dose: 0.5 mg/kg/injection, schedule: Q04DX003 (ip), vehicle: saline 106 % of control | dose: 0.57 mg/kg/injection, schedule: Q01DX Z (ip), vehicle: saline 103 % of control | dose: 0.8 mg/kg/injection, schedule: Q01DX Z (ip), vehicle: carboxymethylcellulose (CMC) 108 % of control

CCCOC(=O)c1ccccc1
inactive: [9] 100 % of control | [10] 97 % of control | [11] 97 % of control

CCO/C=C/C(=O)NC(=S)Nc1ccccc1
inactive: [12] 97 % of control | [1] 86 % of control | [13] 100 % of control | [2] 86 % of control | [14] 102 % of control

Cc1[nH]nc(C(F)(F)F)c1N=NN(C)C
inactive: dose: 175.0 mg/kg/injection, schedule: Q01DX009 (ip), vehicle: saline 90 % of control

CC(=O)Nc1cccc(/C=C/c2nc(N)nc(N)c2-c2ccc(Cl)cc2)c1
inactive: [12] 98 % of control | [13] 87 % of control | [14] 90 % of control
